Assay results as given in publication PMC10538245, “Fragment merging approach for design, synthesis, and biological assessment of urea/acetyl hydrazide clubbed thienopyrimidine derivatives as GSK-3β inhibitors” (BMC Chemistry, 2023).
pIC50: −log10 of the molar value. Like-named read-outs stand apart in the source and are kept apart here.

Columns and labels:
GSK-3β [1] = biological target: T1, GSK-3β (Homo sapiens, UniProt P49841); assay: GSK-3β kinase inhibition, Z'-LYTE FRET assay (Thermo Fisher SelectScreen); assay type: biochemical; details: for inhibition at 100 µM: 100 μM single dose; for pIC50: five doses 10 nM–100 µM
GSK-3β [2] = biological target: T1, GSK-3β; details: cited from earlier work
786–0 = assay: NCI 60-cell line one dose antiproliferative assay; assay type: cell-based; details: Homo sapiens; 786–0, Renal Cancer, 10 µM one dose; read-out: Percent inhibition (cell growth inhibition %)
Text: (§1) The National Cancer Institute "NCI", NIH, Bethesda, Maryland, USA (www.dtp.nci.nih.gov) chose six of the final compounds for the Developmental Therapeutic Program (DTP), codes (5a, 5b, 5c, 5d, 6a, 6b). The NCI screening service will favor compounds with drug-like modes of action based on computer-aided design. Selection The criterion for screening is the possibility of the submitted compounds to provide diversity to the NCI small molecule chemical collection. This screen employs 60 different Leukemia, melanoma, and additional tumor cell lines of the human from brain, kidney, lung, ovary, colon, breast, and prostate cancers. All compounds were picked based on their NCI codes. NSC: D-820696/1, NSC: D-820697/1, NSC: D-820698/1, NSC: D-820699/1, NSC: D-820700/1, NSC: D-820701/1. The initial 10 µM one dose percent inhibition assay was performed on the entire NCI 60 cell panel to examine the different chemotypes of this work. The results are presented as a percentage of cell growth on each of the 60 NCI cell line panels for each of the investigated substances in Table 2.
(§2) The NCI cancer screening procedure includes a comparison of all substances to the sixty NCI cell line panel representing leukemia, NSCLC, cell lines from breast cancer, prostate cancer, melanoma, CNS cancer, renal cancer, ovarian cancer, and colon cancer at a single point of 10 uM. The results of the single-dose screen can be presented using a mean graph.

A498 = assay: NCI 60-cell line one dose antiproliferative assay; assay type: cell-based; details: Homo sapiens; A498, Renal Cancer, 10 µM one dose; read-out: Percent inhibition (cell growth inhibition %)
Text: as §1, §2

CAKI-1 = assay: NCI 60-cell line one dose antiproliferative assay; assay type: cell-based; details: Homo sapiens; CAKI-1, Renal Cancer, 10 µM one dose; read-out: Percent inhibition (cell growth inhibition %)
Text: as §1, §2

HCT-116 = assay: NCI 60-cell line one dose antiproliferative assay; assay type: cell-based; details: Homo sapiens; HCT-116, Colon Cancer, 10 µM one dose; read-out: Percent inhibition (cell growth inhibition %)
Text: as §1, §2

HCT-15 = assay: NCI 60-cell line one dose antiproliferative assay; assay type: cell-based; details: Homo sapiens; HCT-15, Colon Cancer, 10 µM one dose; read-out: Percent inhibition (cell growth inhibition %)
Text: as §1, §2

K-562 = assay: NCI 60-cell line one dose antiproliferative assay; assay type: cell-based; details: Homo sapiens, K562; K-562, Leukemia, 10 µM one dose; read-out: Percent inhibition (cell growth inhibition %)
Text: as §1, §2

LOX IMVI = assay: NCI 60-cell line one dose antiproliferative assay; assay type: cell-based; details: Homo sapiens, Melanoma, 10 µM one dose, read-out: Percent inhibition (cell growth inhibition %)
Text: as §1, §2

M14 = assay: NCI 60-cell line one dose antiproliferative assay; assay type: cell-based; details: Homo sapiens; M14, Melanoma, 10 µM one dose; read-out: Percent inhibition (cell growth inhibition %)
Text: as §1, §2

MCF7 = assay: NCI 60-cell line one dose antiproliferative assay; assay type: cell-based; details: Homo sapiens; MCF7, Breast Cancer, 10 µM one dose; read-out: Percent inhibition (cell growth inhibition %)
Text: as §1, §2

MDA-MB-231/ATCC = assay: NCI 60-cell line one dose antiproliferative assay; assay type: cell-based; details: Homo sapiens, Breast Cancer, 10 µM one dose, read-out: Percent inhibition (cell growth inhibition %)
Text: as §1, §2

NCI-H23 = assay: NCI 60-cell line one dose antiproliferative assay; assay type: cell-based; details: Homo sapiens; NCI-H23, Non-Small Cell Lung Cancer, 10 µM one dose; read-out: Percent inhibition (cell growth inhibition %)
Text: as §1, §2

NCI-H322M = assay: NCI 60-cell line one dose antiproliferative assay; assay type: cell-based; details: Homo sapiens, Non-Small Cell Lung Cancer, 10 µM one dose, read-out: Percent inhibition (cell growth inhibition %)
Text: as §1, §2

NCI-H522 = assay: NCI 60-cell line one dose antiproliferative assay; assay type: cell-based; details: Homo sapiens; NCI-H522, Non-Small Cell Lung Cancer, 10 µM one dose; read-out: Percent inhibition (cell growth inhibition %)
Text: as §1, §2

OVCAR-5 = assay: NCI 60-cell line one dose antiproliferative assay; assay type: cell-based; details: Homo sapiens; OVCAR-5, Ovarian Cancer, 10 µM one dose; read-out: Percent inhibition (cell growth inhibition %)
Text: as §1, §2

PC-3 = assay: NCI 60-cell line one dose antiproliferative assay; assay type: cell-based; details: Homo sapiens; PC-3, Prostate Cancer, 10 µM one dose; read-out: Percent inhibition (cell growth inhibition %)
Text: as §1, §2

RPMI-8226 = assay: NCI 60-cell line one dose antiproliferative assay; assay type: cell-based; details: Homo sapiens; RPMI-8226, Leukemia, 10 µM one dose; read-out: Percent inhibition (cell growth inhibition %)
Text: as §1, §2

SF-295 = assay: NCI 60-cell line one dose antiproliferative assay; assay type: cell-based; details: Homo sapiens; SF-295, CNS Cancer, 10 µM one dose; read-out: Percent inhibition (cell growth inhibition %)
Text: as §1, §2

SF-539 = assay: NCI 60-cell line one dose antiproliferative assay; assay type: cell-based; details: Homo sapiens; SF-539, CNS Cancer, 10 µM one dose; read-out: Percent inhibition (cell growth inhibition %)
Text: as §1, §2

SN12C = assay: NCI 60-cell line one dose antiproliferative assay; assay type: cell-based; details: Homo sapiens, Renal Cancer, 10 µM one dose, read-out: Percent inhibition (cell growth inhibition %)
Text: as §1, §2

SNB-19 = assay: NCI 60-cell line one dose antiproliferative assay; assay type: cell-based; details: Homo sapiens; SNB-19, CNS Cancer, 10 µM one dose; read-out: Percent inhibition (cell growth inhibition %)
Text: as §1, §2

SNB-75 = assay: NCI 60-cell line one dose antiproliferative assay; assay type: cell-based; details: Homo sapiens; SNB-75, CNS Cancer, 10 µM one dose; read-out: Percent inhibition (cell growth inhibition %)
Text: as §1, §2

T-47D = assay: NCI 60-cell line one dose antiproliferative assay; assay type: cell-based; details: Homo sapiens, T47D, Breast Cancer, 10 µM one dose, read-out: Percent inhibition (cell growth inhibition %)
Text: as §1, §2

U251 = assay: NCI 60-cell line one dose antiproliferative assay; assay type: cell-based; details: Homo sapiens, U-251; U251, CNS Cancer, 10 µM one dose; read-out: Percent inhibition (cell growth inhibition %)
Text: as §1, §2

UACC-62 = assay: NCI 60-cell line one dose antiproliferative assay; assay type: cell-based; details: Homo sapiens; UACC-62, Melanoma, 10 µM one dose; read-out: Percent inhibition (cell growth inhibition %)
Text: as §1, §2

UO-31 = assay: NCI 60-cell line one dose antiproliferative assay; assay type: cell-based; details: Homo sapiens; UO-31, Renal Cancer, 10 µM one dose; read-out: Percent inhibition (cell growth inhibition %)
Text: as §1, §2

A549/ ATCC = assay: NCI 60-cell line one dose antiproliferative assay; assay type: cell-based; details: Homo sapiens, Non-Small Cell Lung Cancer, 10 µM one dose, read-out: Percent inhibition (cell growth inhibition %)
Text: as §1, §2

EKVX = assay: NCI 60-cell line one dose antiproliferative assay; assay type: cell-based; details: Homo sapiens, Non-Small Cell Lung Cancer, 10 µM one dose, read-out: Percent inhibition (cell growth inhibition %)
Text: as §1, §2

HOP-92 = assay: NCI 60-cell line one dose antiproliferative assay; assay type: cell-based; details: Homo sapiens; HOP-92, Non-Small Cell Lung Cancer, 10 µM one dose; read-out: Percent inhibition (cell growth inhibition %)
Text: as §1, §2

HS 578 T = assay: NCI 60-cell line one dose antiproliferative assay; assay type: cell-based; details: Homo sapiens, Breast Cancer, 10 µM one dose, read-out: Percent inhibition (cell growth inhibition %)
Text: as §1, §2

IGROV1 = assay: NCI 60-cell line one dose antiproliferative assay; assay type: cell-based; details: Homo sapiens, IGROV-1; IGROV1, Ovarian Cancer, 10 µM one dose; read-out: Percent inhibition (cell growth inhibition %)
Text: as §1, §2

MALME-3 M = assay: NCI 60-cell line one dose antiproliferative assay; assay type: cell-based; details: Homo sapiens, Melanoma, 10 µM one dose, read-out: Percent inhibition (cell growth inhibition %)
Text: as §1, §2

NCI-H226 = assay: NCI 60-cell line one dose antiproliferative assay; assay type: cell-based; details: Homo sapiens; NCI-H226, Non-Small Cell Lung Cancer, 10 µM one dose; read-out: Percent inhibition (cell growth inhibition %)
Text: as §1, §2

RXF 393 = assay: NCI 60-cell line one dose antiproliferative assay; assay type: cell-based; details: Homo sapiens; RXF 393, Renal Cancer, 10 µM one dose; read-out: Percent inhibition (cell growth inhibition %)
Text: as §1, §2

SF-268 = assay: NCI 60-cell line one dose antiproliferative assay; assay type: cell-based; details: Homo sapiens; SF-268, CNS Cancer, 10 µM one dose; read-out: Percent inhibition (cell growth inhibition %)
Text: as §1, §2

SR = assay: NCI 60-cell line one dose antiproliferative assay; assay type: cell-based; details: Homo sapiens, Leukemia, 10 µM one dose, read-out: Percent inhibition (cell growth inhibition %)
Text: as §1, §2

T1 sequence (P49841 whole entry): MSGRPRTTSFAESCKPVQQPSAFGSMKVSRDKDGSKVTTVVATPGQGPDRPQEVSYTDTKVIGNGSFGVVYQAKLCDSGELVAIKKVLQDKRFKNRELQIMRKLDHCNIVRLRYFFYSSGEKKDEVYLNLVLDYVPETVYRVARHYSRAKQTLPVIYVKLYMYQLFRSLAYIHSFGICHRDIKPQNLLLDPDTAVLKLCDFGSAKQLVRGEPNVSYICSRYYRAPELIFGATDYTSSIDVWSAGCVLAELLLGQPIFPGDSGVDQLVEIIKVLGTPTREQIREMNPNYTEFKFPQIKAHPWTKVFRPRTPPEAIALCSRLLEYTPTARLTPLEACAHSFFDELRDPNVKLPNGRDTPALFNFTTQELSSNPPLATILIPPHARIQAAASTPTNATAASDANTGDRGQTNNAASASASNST

Compound: O=C(COc1ncnc2sc3c(c12)CCCC3)NNC(=O)c1ccc([N+](=O)[O-])cc1 [6b]
- melting point: 320 to 321 °C

Compound: O=C(Nc1ccc(Cl)c(C(F)(F)F)c1)Nc1ncnc2sc3c(c12)CCCC3 [9c, 1-(4-Chloro-3-(trifluoromethyl)phenyl)-3-(5,6,7,8tetrahydrobenzo[4,5]thieno[2,3-d]pyrimidin-4-yl)urea]
- inhibition at 100 µM (GSK-3β [1]): 68%
- melting point: 300 °C

Compound: COc1ccc(-c2cc3c(NC(=O)c4cccc(F)c4)ncnc3o2)cc1 [II]
- pIC50 (GSK-3β [2]): < 4.46

Compound: S=C(Nc1ccccc1)Nc1ncnc2sc3c(c12)CCCC3 [9a, Phenyl-3-(5,6,7,8-tetrahydrobenzo [4,5]thieno[2,3-d)pyrimidin-4-yl) thiourea]
- inhibition at 10 µM (GSK-3β [1]): 17%
- inhibition at 100 µM (GSK-3β [1]): 68%
- melting point: 300 °C

Compound: O=C(COc1ncnc2sc3c(c12)CCCC3)NNC(=S)Nc1ccccc1 [6a]
- inhibition at 100 µM (GSK-3β [1]): 82%
- pIC50 (GSK-3β [1]): 4.76
- inhibition at 10 µM (786–0): 1.23%
- inhibition at 10 µM (A498): 47%
- inhibition at 10 µM (CAKI-1): 1.14%
- inhibition at 10 µM (HCT-116): 1.5%
- inhibition at 10 µM (HCT-15): 0.17%
- inhibition at 10 µM (K-562): 7.06%
- inhibition at 10 µM (LOX IMVI): 1.31%
- inhibition at 10 µM (M14): 0.96%
- inhibition at 10 µM (MCF7): 12.3%
- inhibition at 10 µM (MDA-MB-231/ATCC): 3.71%
- inhibition at 10 µM (NCI-H23): 3.1%
- inhibition at 10 µM (NCI-H322M): 0.95%
- inhibition at 10 µM (NCI-H522): 5.09%
- inhibition at 10 µM (OVCAR-5): 3.88%
- inhibition at 10 µM (PC-3): 3.65%
- inhibition at 10 µM (RPMI-8226): 3.86%
- inhibition at 10 µM (SF-295): 2.64%
- inhibition at 10 µM (SF-539): 2.42%
- inhibition at 10 µM (SN12C): 3.79%
- inhibition at 10 µM (SNB-19): 5.27%
- inhibition at 10 µM (SNB-75): 14.6%
- inhibition at 10 µM (T-47D): 6.64%
- inhibition at 10 µM (U251): 3.33%
- inhibition at 10 µM (UACC-62): 7.2%
- inhibition at 10 µM (UO-31): 14.8%
- melting point: 270 to 272 °C

Compound: O=C(COc1ncnc2sc3c(c12)CCCC3)NN=Cc1ccc(Cl)cc1 [5b, N'-(4-Chlorobenzylidene)-2-((5,6,7,8-tetrahydrobenzo [4,5]thieno[2,3-d]pyrimidin-4-yl)oxy) acetohydrazide]
- inhibition at 10 µM (GSK-3β [1]): 3%
- inhibition at 100 µM (GSK-3β [1]): 17%
- inhibition at 10 µM (786–0): 2.11%
- inhibition at 10 µM (A498): 11.1%
- inhibition at 10 µM (A549/ ATCC): 4.36%
- inhibition at 10 µM (CAKI-1): 4.53%
- inhibition at 10 µM (EKVX): 3.11%
- inhibition at 10 µM (HOP-92): 0.71%
- inhibition at 10 µM (HS 578 T): 7.62%
- inhibition at 10 µM (IGROV1): 11%
- inhibition at 10 µM (K-562): 0.32%
- inhibition at 10 µM (LOX IMVI): 7.09%
- inhibition at 10 µM (M14): 2%
- inhibition at 10 µM (MALME-3 M): 6.05%
- inhibition at 10 µM (MCF7): 11.7%
- inhibition at 10 µM (MDA-MB-231/ATCC): 7.6%
- inhibition at 10 µM (NCI-H226): 2.81%
- inhibition at 10 µM (NCI-H322M): 0.39%
- inhibition at 10 µM (OVCAR-5): 8.96%
- inhibition at 10 µM (PC-3): 3.8%
- inhibition at 10 µM (RPMI-8226): 2.71%
- inhibition at 10 µM (RXF 393): 4.13%
- inhibition at 10 µM (SF-268): 4.27%
- inhibition at 10 µM (SN12C): 2.55%
- inhibition at 10 µM (SNB-19): 9.77%
- inhibition at 10 µM (SNB-75): 18.4%
- inhibition at 10 µM (SR): 1.63%
- inhibition at 10 µM (T-47D): 6.96%
- inhibition at 10 µM (U251): 15.9%
- inhibition at 10 µM (UACC-62): 4.84%
- inhibition at 10 µM (UO-31): 23.1%
- melting point: 275 to 276 °C

Compound: Cc1cccc(NC(=O)Nc2ncnc3sc4c(c23)CCCC4)c1 [9b, 1-(5,6,7,8-Tetrahydrobenzo[4,5]thieno[2,3-d]pyrimidin-4-yl)-3-(m-tolyl)urea]
- inhibition at 100 µM (GSK-3β [1]): 70%
- pIC50 (GSK-3β [1]): 4.55
- melting point: 300 °C
